Blank lines part the entries; values can stand above or below the compound they belong to.
Experiments:
MAPKAPK5 = molecular target: T1, MAPKAPK5 (Homo sapiens, UniProt Q8IW41); test: MAPKAP-K5 assay (FlashPlate, 33P-ATP); format: biochemical; settings: 0.6 μM ATP, 30 minutes at room temperature
T1 construct: 1 mU MAPKAP-K5
T1 sequence (Q8IW41 1-473): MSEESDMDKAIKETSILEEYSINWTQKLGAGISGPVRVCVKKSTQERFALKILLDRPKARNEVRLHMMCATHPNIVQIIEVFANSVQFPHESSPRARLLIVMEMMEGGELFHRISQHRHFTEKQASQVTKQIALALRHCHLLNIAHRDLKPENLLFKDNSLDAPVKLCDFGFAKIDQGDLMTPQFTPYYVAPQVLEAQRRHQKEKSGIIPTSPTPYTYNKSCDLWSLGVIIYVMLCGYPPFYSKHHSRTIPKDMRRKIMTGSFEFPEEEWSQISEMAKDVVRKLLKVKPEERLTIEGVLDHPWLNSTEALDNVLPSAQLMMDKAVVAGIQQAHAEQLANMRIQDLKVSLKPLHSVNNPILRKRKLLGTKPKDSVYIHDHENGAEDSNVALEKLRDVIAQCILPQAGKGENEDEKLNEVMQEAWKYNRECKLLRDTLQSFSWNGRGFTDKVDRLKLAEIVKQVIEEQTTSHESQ
Procedure: 3 μM MAPKAP-K5 peptide substrate

MMP1 expression by SFs = test: 'MMP assay': MMP1 expression by 'complex trigger' activated synovial fibroblasts (MMP1 ELISA); format: cell-based, human; settings: Homo sapiens, Fibroblast, RASFs, 48 hrs
Procedure: A 384-well format ELISA for measurement of MMP1 is developed. Various primary antibodies are tested, as well as various ELISA protocols. The following protocol is developed and validated to measure MMP1 levels in SF supernatant in 384 well plates: white Lumitrac 600 384 well plates (Greiner) are coated with 2 μg/mL anti-MMP1 antibody MAB1346 (Chemicon). The antibody is diluted in buffer 40 (1.21 g Tris base (Sigma), 0.58 g NaCl (Calbiochem) and 5 ml 10% NaN3 (Sigma) in 1 L milliQ water and adjusted to pH 8.5). After overnight incubation at 4° C., plates are washed with PBS (80 g NaCl, 2 g KCl (Sigma), 11.5 g Na2HPO4.7H2O and 2 g KH2PO4 in 10 L milliQ; pH 7.4) and blocked with 100 μL/well Casein buffer (2% Casein (VWR International) in PBS). Next day, casein buffer is removed from ELISA plates and replaced by 50 μL/well EC buffer (4 g casein, 2.13 g Na2HPO4 (Sigma), 2 g bovine albumin (Sigma), 0.69 g NaH2PO4.H2O (Sigma), 0.5 g CHAPS (Roche), 23.3 g NaCl, 4 mL 0.5 M EDTA pH 8 (Invitrogen), 5 mL 10% NaN3 in 1 L milliQ and adjusted to pH 7.0). 0.25 mM DTT (Sigma) is added to the thawed samples plates. After removal of the EC buffer, 20 μL of sample is transferred to the ELISA plates. After overnight incubation at 4° C. plates are washed twice with PBS and once with PBST (PBS with 0.05% Tween-20 (Sigma)) and incubated with 35 μL/well biotinylated anti-MMP1 antibody solution (R&D). This secondary antibody is diluted in buffer C (0.82 g NaH2PO4.H2O, 4.82 g Na2HPO4, 46.6 g NaCl, 20 g bovine albumin and 4 mL 0.5M EDTA pH 8 in 2 L milliQ and adjusted to pH 7.0) at a concentration of 5 μg/mL. After 2 h of incubation at RT, plates are washed as described above and incubated with 50 μL/well streptavidin-HRP conjugate (Biosource). Streptavidin-HRP conjugate is diluted in buffer C at a concentration of 0.25 μg/mL. After 45 min, plates are washed as described above and incubated for 5 min with 50 μL/well BM Chem ELISA Substrate (Roche). Readout is performed on the Luminoscan Ascent Luminometer (Labsystems) with an integration time of 200 msec or with an Envision reader (Perkin Elmer).
The increase of MMP1 expression by SFs upon treatment with cytokines relevant in the field of RA (TNF-α, IL1β and OSM) or a combination thereof is shown in FIG. 2 as white bars. For this experiment, SFs are seeded in 96 well plates, 3,000 cells/well. 24 h later, the medium is changed to M199 medium supplemented with 1% FBS. One day after the medium change, cytokines or combinations thereof are added to the cultures, each cytokine being added to a final concentration of 25 ng/mL. 72 h after cytokine addition, the supernatant is collected and processed in the MMP1 ELISA as described in the protocol given above. In parallel with this experiment, SFs are triggered, using the same protocol, with the supernatant of THP1 cells (2-fold diluted in M199+1% FBS) treated with the same cytokines or combinations of cytokines for 48 h in M199 medium+1% FBS. The induction of the MMP1 expression by SFs triggered with the supernatants of TNF-α-treated THP1 cells is stronger (>4.5 fold induction) as compared to the SFs triggered with recombinant TNF-α alone (3-fold induction) and almost equals the 5-fold induction obtained by a mixture of 3 purified cytokines (TNF-α, IL1βb, OSM). […] As the role of TNF-α in the RA pathogenesis is validated (TNF-α-blockers such as Infliximab and Etanercept show some efficacy in the treatment of RA patients) and the THP-1 cells are representative for monocytes/macrophages present in the joint of RA patients, the TNF-α-based trigger mixture prepared by contacting THP-1 cells with TNF-α will contain factors present in the joints of RA patients and subsequently is relevant to RA. This TNF-α-based complex trigger, further referred to as the ‘complex trigger’, will further be used as basis for the ‘MMP assay’.
Dexamethasone is shown to dose-dependently reduce amounts of MMP1 produced by complex trigger activated SFs. […]

SMILES: O=c1cc(-c2cnc(Nc3ccc(N4CCOCC4)cc3)c3nccn23)cc(C(F)(F)F)[nH]1 [Compound 161, 6-Trifluoromethyl-4-[8-(4-morpholin-4-ylphenylamino)imidazo[1,2-a]pyrazin-5-yl]-1H-pyridin-2-one]
IC50 (MAPKAPK5): > 1 µM
EC50 (MMP1 expression by SFs): > 1 µM

SMILES: CCN(CC)CCNC(=O)c1ccc(Nc2ncc(-c3cn[nH]c3)n3ccnc23)cn1 [Compound 103, 5-[5-(1H-Pyrazol-4-yl)-imidazo[1,2-a]pyrazin-8-ylamino]-pyridine-2-carboxylic acid (2-diethylamino-ethyl)-amide]
IC50 (MAPKAPK5): 0.501 to 1 µM
EC50 (MMP1 expression by SFs): > 1 µM

SMILES: CN(C)c1cc(-c2cnc(Nc3ccc(N4CCOCC4)cc3)c3nccn23)ccn1 [Compound 111, [5-(2-Dimethylamino-pyridin-4-yl)-imidazo[1,2-a]pyrazin-8-yl]-(4-morpholin-4-yl-phenyl)-amine]
IC50 (MAPKAPK5): > 1 µM
EC50 (MMP1 expression by SFs): > 1 µM

SMILES: NC(=O)c1cnc(Nc2ccc(N3CCOCC3)cc2)c2nccn12 [Compound 66]
IC50 (MAPKAPK5): > 1 µM
EC50 (MMP1 expression by SFs): > 1 µM

SMILES: CCc1cnc2c(Nc3ccc(N4CCOCC4)cc3)ncc(-c3cc[nH]c(=O)c3)n12 [Compound 180]
IC50 (MAPKAPK5): > 1 µM

SMILES: CC(C)N1CCN(c2ccc(Nc3ncc(-c4coc(C(N)=O)c4)n4ccnc34)cn2)CC1 [Compound 209, 4-{8-[6-(4-Isopropyl-piperazin-1-yl)-pyridin-3-ylamino]-imidazo[1,2-a]pyrazin-5-yl}-furan-2-carboxylic acid amide]
IC50 (MAPKAPK5): 0.101 to 0.5 µM
EC50 (MMP1 expression by SFs): > 1 µM

SMILES: c1cn2c(-c3nn[nH]n3)cnc(Nc3ccc(N4CCOCC4)cc3)c2n1 [Compound 62]
IC50 (MAPKAPK5): > 1 µM
EC50 (MMP1 expression by SFs): > 1 µM

SMILES: CN1CCN(c2ccc(Nc3ncc(-c4ccc(=O)[nH]c4)n4ccnc34)cc2)CC1 [Compound 109]
IC50 (MAPKAPK5): > 1 µM
EC50 (MMP1 expression by SFs): > 1 µM

SMILES: CCN(CC)CCNC(=O)c1ccc(Nc2ncc(-c3cncnc3)n3ccnc23)cc1 [Compound 87]
IC50 (MAPKAPK5): > 1 µM
EC50 (MMP1 expression by SFs): > 1 µM

SMILES: c1cncc(Nc2ncc(-c3cn[nH]c3)n3ccnc23)c1 [Compound 42]
IC50 (MAPKAPK5): > 1 µM
EC50 (MMP1 expression by SFs): > 1 µM

SMILES: CC(C)N1CCN(c2ccc(Nc3ncc(-c4cc(F)c5c(c4)CNC5=O)n4ccnc34)cc2)CC1 [Compound 220, 7-Fluoro-5-{8-[4-(4-isopropyl-piperazin-1-yl)phenylamino]imidazo[1,2-a]pyrazin-5-yl}-2,3-dihydroisoindol-1-one]
IC50 (MAPKAPK5): 0.001 to 0.1 µM
EC50 (MMP1 expression by SFs): > 1 µM

SMILES: CCN(CC)CCNC(=O)c1ccc(Nc2ncc(-c3cn[nH]c3)n3ccnc23)cc1OC [Compound 48]
IC50 (MAPKAPK5): > 1 µM
EC50 (MMP1 expression by SFs): > 1 µM

SMILES: N#Cc1[nH]ncc1-c1cnc(Nc2ccc(N3CCOCC3)cc2)c2nccn12 [Compound 212, 4-[8-(4-Morpholin-4-yl-phenylamino)-imidazo[1,2-a]pyrazin-5-yl]-2H-pyrazole-3-carbonitrile]
IC50 (MAPKAPK5): 0.101 to 0.5 µM
EC50 (MMP1 expression by SFs): 0.101 to 0.5 µM

SMILES: CC(C)N1CCN(c2ccc(Nc3ncc(-c4cn[nH]c4)n4ccnc34)cn2)CC1 [Compound 201, [6-(4-Isopropylpiperazin-1-yl)pyridin-3-yl]-[5-(1H-pyrazol-4-yl)-imidazo[1,2-a]pyrazin-8-yl]amine]
IC50 (MAPKAPK5): 0.501 to 1 µM
EC50 (MMP1 expression by SFs): > 1 µM

SMILES: CCN(CC)CCNC(=O)c1cccc(Nc2ncc(-c3cn[nH]c3)n3ccnc23)c1 [Compound 50]
IC50 (MAPKAPK5): > 1 µM
EC50 (MMP1 expression by SFs): > 1 µM

SMILES: CCc1cnc2c(Nc3ccc(N4CCOCC4)cc3)ncc(-c3cn[nH]c3)n12 [Compound 189, [3-Ethyl-5-(1H-pyrazol-4-yl)imidazo[1,2-a]pyrazin-8-yl]-(4-morpholin-4-yl-phenyl)amine]
EC50 (MMP1 expression by SFs): 0.501 to 1 µM

SMILES: O=C1NCc2cc(-c3cnc(Nc4cncnc4)c4nccn34)ccc21 [Compound 230]
IC50 (MAPKAPK5): 0.101 to 0.5 µM

SMILES: c1cn2c(-c3cn[nH]c3)cnc(NCc3ccc(N4CCOCC4)cc3)c2n1 [Compound 8]
IC50 (MAPKAPK5): > 1 µM

SMILES: CC(C)N1CCN(c2ccc(Nc3ncc(-c4cc5c(s4)C(=O)NC5)n4ccnc34)cc2)CC1 [Compound 228]
IC50 (MAPKAPK5): 0.101 to 0.5 µM

SMILES: CCN(CCO)c1ccc(Nc2ncc(-c3ccc(O)cc3C)n3ccnc23)cc1 [Compound 3]
IC50 (MAPKAPK5): > 1 µM

SMILES: COc1cc(Nc2ncc(-c3cn[nH]c3)n3ccnc23)ccc1C(=O)NCc1ccc(C)nc1 [Compound 184, 2-Methoxy-N-(6-methylpyridin-3-ylmethyl)-4-[5-(1H-pyrazol-4-yl)imidazo[1,2-a]pyrazin-8-ylamino]benzamide]
EC50 (MMP1 expression by SFs): 0.101 to 0.5 µM

Continued, in another order:

IC50 (MAPKAPK5): > 1 µM
SMILES: NC(=O)c1ccc(Nc2ncc(-c3cn[nH]c3)n3cc(Br)nc23)cc1 [Compound 37]
EC50 (MMP1 expression by SFs): > 1 µM

IC50 (MAPKAPK5): > 1 µM
SMILES: Cc1cc(-c2cnc(Nc3ccc(N4CCOCC4)cc3)c3nccn23)ccc1C(N)=O [Compound 185]
EC50 (MMP1 expression by SFs): 0.501 to 1 µM

IC50 (MAPKAPK5): > 1 µM
SMILES: CCN(CC)CCNC(=O)c1ccc(Nc2ncc(-c3ccc(O)c(OC)c3)n3ccnc23)cc1 [Compound 65]
EC50 (MMP1 expression by SFs): > 1 µM

IC50 (MAPKAPK5): > 1 µM
SMILES: NC(=O)c1ccc(-c2cnc(Nc3ccc(OCc4cccnc4)cc3)c3nccn23)cc1F [Compound 147]
EC50 (MMP1 expression by SFs): 0.101 to 0.5 µM

IC50 (MAPKAPK5): 0.501 to 1 µM
SMILES: c1cn2c(-c3cn[nH]c3)cnc(Nc3ccc4[nH]ccc4c3)c2n1 [Compound 27]
EC50 (MMP1 expression by SFs): > 1 µM

IC50 (MAPKAPK5): 0.101 to 0.5 µM
SMILES: O=C1NCc2cc(-c3cnc(Nc4ccccc4)c4nccn34)ccc21 [Compound 213]
EC50 (MMP1 expression by SFs): 0.101 to 0.5 µM

IC50 (MAPKAPK5): > 1 µM
SMILES: Cc1cc(Nc2ncc(-c3cn[nH]c3)n3ccnc23)ccc1C(N)=O [Compound 33]
EC50 (MMP1 expression by SFs): > 1 µM

IC50 (MAPKAPK5): > 1 µM
SMILES: NC(=O)c1ccc(-c2cnc(Nc3ccc4[nH]ccc4c3)c3nccn23)cc1 [Compound 28]
EC50 (MMP1 expression by SFs): 0.501 to 1 µM

IC50 (MAPKAPK5): > 1 µM
SMILES: NC(=O)c1ccc(-c2cnc(Nc3ccc(-n4ccc(C(F)(F)F)n4)cc3)c3nccn23)cc1 [Compound 133]
EC50 (MMP1 expression by SFs): 0.101 to 0.5 µM

IC50 (MAPKAPK5): > 1 µM
SMILES: O=C(O)c1ccc(-c2cnc(Nc3ccc(C(=O)NCCN4CCOCC4)cc3)c3nccn23)cc1 [Compound 54]
EC50 (MMP1 expression by SFs): > 1 µM

IC50 (MAPKAPK5): > 1 µM
SMILES: COc1cc(Nc2ncc(-c3cn[nH]c3)n3ccnc23)ccc1C(=O)NCc1ccccc1 [Compound 182]
EC50 (MMP1 expression by SFs): > 1 µM

IC50 (MAPKAPK5): > 1 µM
SMILES: CCN(CC)CCNC(=O)c1ccc(Nc2ncc(-c3ccc(C(N)=O)cc3)n3ccnc23)cc1 [Compound 46]
EC50 (MMP1 expression by SFs): > 1 µM

IC50 (MAPKAPK5): > 1 µM
SMILES: NC(=O)c1cccc(Nc2ncc(-c3cn[nH]c3)n3ccnc23)c1 [Compound 10]
EC50 (MMP1 expression by SFs): > 1 µM

IC50 (MAPKAPK5): 0.501 to 1 µM
SMILES: CN1CCN(c2ccc(Nc3ncc(-c4ccc(C(N)=O)cc4)n4ccnc34)cc2)CC1 [Compound 26]
